Data taken from US20240287022A1 (Merck Sharp & Dohme LLC, priority 2021, published 2024).

Biological target: recombinant IL4I1 (Homo sapiens (Human), UniProt Q96RQ9)
Experiment: IL4I1 Enzymatic Assay (Amplex Red/HRP coupled H2O2 detection)
Format: biochemical
Details: 1 nM IL4I1, 1 mM each Phe/Tyr/Trp, four-hour pre-incubation, 120 minutes reaction, top compound concentration of 10000 nM
How it was run: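 Recombinant IL4I1 (1 nM final) was pre-incubated 4 h at ambient temperature with compound in 50 mM Hepes pH 7.0, 0.005% Tween20. Reaction ran 120 min with 1 mM each Phe/Tyr/Trp, 0.05 mM Amplex Red and 1 U/mL HRP. Resorufin fluorescence (544/590 nm) was read, and EC50 fitted from ten-point 1:3 titrations (top 10000 nM) by four-parameter regression.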

recombinant IL4I1, sequence (Q96RQ9 22-567): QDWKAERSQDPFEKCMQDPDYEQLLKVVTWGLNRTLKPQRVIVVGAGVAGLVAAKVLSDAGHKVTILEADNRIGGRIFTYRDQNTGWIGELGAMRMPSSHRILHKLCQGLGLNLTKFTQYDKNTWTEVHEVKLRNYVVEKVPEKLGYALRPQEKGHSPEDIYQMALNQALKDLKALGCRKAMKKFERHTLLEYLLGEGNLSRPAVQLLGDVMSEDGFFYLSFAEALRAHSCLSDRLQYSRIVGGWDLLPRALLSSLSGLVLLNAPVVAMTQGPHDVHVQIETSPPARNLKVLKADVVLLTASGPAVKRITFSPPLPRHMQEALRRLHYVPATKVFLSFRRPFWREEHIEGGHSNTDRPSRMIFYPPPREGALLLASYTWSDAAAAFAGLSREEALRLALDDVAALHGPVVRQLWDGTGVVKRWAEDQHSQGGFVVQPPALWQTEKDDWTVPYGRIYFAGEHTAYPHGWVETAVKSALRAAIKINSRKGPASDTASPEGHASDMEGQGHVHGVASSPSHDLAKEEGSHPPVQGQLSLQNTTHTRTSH

Row | EC50 [nM] | Compound
1 | 3.3 | CC(C)(O)c1ccc(Cc2cc3ccccc3[nH]c2=O)cc1Cl [Example 80, 3-(3-chloro-4-(2-hydroxypropan-2-yl)benzyl)quinolin-2(1H)-one]
2 | 1.7 | N#Cc1cnn2ccc(Cc3cc4ccccc4[nH]c3=O)cc12 [Example 92, 5-((2-oxo-1,2-dihydroquinolin-3-yl)methyl)pyrazolo[1,5-a]pyridine-3-carbonitrile]
3 | 466 | O=c1[nH]c2cnccc2cc1Cc1cccc(OC(F)(F)F)c1 [Example 103, 3-(3-(trifluoromethoxy)benzyl)-1,7-naphthyridin-2(1H)-one]
4 | 1.3 | O=c1[nH]c2ccccc2cc1Cc1ccc(OCC2CC2)nc1 [Example 88, 3-((6-(cyclopropylmethoxy)pyridin-3-yl)methyl)quinolin-2(1H)-one]
5 | 1.2 | Cn1ncc2cc(Cc3cc4ccccc4[nH]c3=O)ccc21 [Example 153, 3-((1-methyl-1H-indazol-5-yl)methyl)quinolin-2(1H)-one]
6 | 4.1 | O=C1CC[C@@H](c2ccc(Cc3cc4ccccc4[nH]c3=O)cc2)N1 [Example 159, (S)-3-(4-(5-oxopyrrolidin-2-yl)benzyl)quinolin-2(1H)-one]
7 | 5.3 | O=c1[nH]c2ccccc2cc1Cc1ccc2ncccc2c1 [Example 152, 3-(Quinolin-6-ylmethyl)quinolin-2(1H)-one]
8 | 2 | O=c1[nH]c2ccccc2cc1Cc1nnc(-c2c(F)cccc2F)o1 [Example 3, 3-((5-(2,6-difluorophenyl)-1,3,4-oxadiazol-2-yl)methyl)quinolin-2(1H)-one]
9 | 2 | COc1cc(C#N)cc(Cc2cc3ccccc3[nH]c2=O)c1 [Example 133, 3-methoxy-5-((2-oxo-1,2-dihydroquinolin-3-yl)methyl)benzonitrile]
10 | 6.1 | O=c1[nH]c2ccccc2cc1Cc1ccc(-c2cn[nH]c2)cc1 [Example 125, 3-(4-(1H-pyrazol-4-yl)benzyl)quinolin-2(1H)-one]
11 | 5.9 | N#CC1(c2ccc(Cc3cc4ccccc4[nH]c3=O)cn2)COC1 [Example 99, 3-(5-((2-oxo-1,2-dihydroquinolin-3-yl)methyl)pyridin-2-yl)oxetane-3-carbonitrile]
12 | 10000 | N#Cc1ccc2[nH]c(=O)c(Cc3ccccc3)cc2c1 [Example 174, 3-Benzyl-2-oxo-1,2-dihydroquinoline-6-carbonitrile]
13 | 10.2 | O=c1[nH]c2ccccc2cc1Cc1nnc(-c2ncn3ccccc23)o1 [Example 16, 3-((5-(imidazo[1,5-a]pyridin-1-yl)-1,3,4-oxadiazol-2-yl)methyl)quinolin-2(1H)-one]
14 | 6.2 | O=c1[nH]c2ccccc2cc1Cc1ccc2nccnc2c1 [Example 157, 3-(quinoxalin-6-ylmethyl)quinolin-2(1H)-one]
15 | 16.7 | CC1CN(c2ccc(Cc3cc4cnccc4[nH]c3=O)cc2)C(=O)O1 (single isomer, unassigned) [Example 189, (S or R)-5-methyl-3-(4-((2-oxo-1,2-dihydro-1,6-naphthyridin-3-yl)methyl)phenyl)oxazolidin-2-one]
16 | 2.5 | N#Cc1n[nH]c2ccc(Cc3cc4cnccc4[nH]c3=O)cc12 [Example 95, 5-((2-oxo-1,2-dihydro-1,6-naphthyridin-3-yl)methyl)-1H-indazole-3-carbonitrile]
17 | 4.9 | CC(C)(O)Cc1ccc(Cc2cc3ccccc3[nH]c2=O)cc1 [Example 179, 3-(4-(2-Hydroxy-2-methylpropyl)benzyl)quinolin-2(1H)-one]
18 | 314 | O=c1[nH]c2ccccc2cc1Cc1nnc(-c2ccn3ncnc3c2)o1 [Example 26, 3-((5-([1,2,4]triazolo[1,5-a]pyridin-7-yl)-1,3,4-oxadiazol-2-yl)methyl)quinolin-2(1H)-one]
19 | 3.6 | NS(=O)(=O)c1cccc(Cc2cc3cc(F)ccc3[nH]c2=O)c1 [Example 120, 3-((6-fluoro-2-oxo-1,2-dihydroquinolin-3-yl)methyl)benzenesulfonamide]
20 | 60.2 | O=c1[nH]c2ccccc2cc1Cc1cnn2ncccc12 [Example 158, 3-(pyrazolo[1,5-b]pyridazin-3-ylmethyl)quinolin-2(1H)-one]
